# Laboratory results as given in patent US9327264B2, “Containerless synthesis of amorphous and nanophase organic materials” (UCHICAGO ARGONNE, LLC, priority 2011, dated 2016).
# Where two headings read alike, the source gives them in different places.
# What was measured:
# Type in all cases: physicochemical
# [1] = Shelf life of substantially pure amorphized materials stored at 4° C. (x-ray diffraction)
# Text: The inventors have discovered that acoustic levitation produces amorphous forms of a variety of organic compounds having different glass forming abilities. […] It is also noted that the term “vitreous”, “vitrify”, “vitrification”, “glass” and “glassy” are variations of amorphous for the purposes of this specification and may be used interchangeably. The x-ray diffraction patterns were obtained using very high flux, high energy x-rays that are capable of detecting even minute (<1%) traces of crystalline materials. A configuration to enable x-ray beam analysis is depicted in FIG. 8 and discussed infra.
# Several amorphized samples were quenched by trapping them in a small volume of liquid quenchent (for example liquid nitrogen, which is maintained at about −196° C.). The quenched samples were stored at temperatures ranging from about −20° C. to 25° C.
# Shelf life is therefore extended by cooling them. […] For bulk storage of amorphized materials, samples are stored at temperatures below freezing (0° C.) if the samples are to be kept more than 150 days. However, for short term storage (e.g., less than 150 days), stability is achieved at storage temperatures up to about 20° C.
# Myriad types of materials are candidates for processing using the invented weightless process. Suitable genuses of material include, but are not limited to pharmaceuticals, antibiotics, cosmetics, foods such as dairy products, and combinations thereof. Table 1 below depicts the sample stability over time for various amorphous materials produced using the invented method.
# The structure of the starting crystalline materials, the supersaturated samples processed in the levitator, and the in-situ progress of the evaporation experiments were measured using the 115 keV x-ray diffraction beam line 11-ID-C at the Advanced Photon Source, located at Argonne National Laboratory, Argonne, Ill. X-rays with an incident wavelength of 0.10798 Å were used and the scattered x-ray intensity was measured with a flat plate a-Si Perkin Elmer area detector (model XRD 1621). Generally, radiations greater than 40 keV are suitable to provide bulk structure detail of materials about a millimeter or two in size.
# [2] = Glass transition temperature Tg
# Experimental: The quenched samples were stored at temperatures ranging from about −20° C. to 25° C.
# [3] = Retention of amorphous form on temperature exposure and room temperature storage (x-ray diffraction); details: for Amorphous state during temperature exposure: exposure to temperatures between about −200° C. and 25° C.; for Time amorphous form could be stored: room temperature, in glass or in contact with polyimide film
# Text: (Suitable film is polyimide film, e.g., Kapton from Dupont.)
# The structure and properties of stable or meta-stable amorphous gels are often quite different from their crystalline counterparts. Therefore at, or just prior to, tP the gels were quenched into a small dish of liquid nitrogen in an attempt to preserve the amorphous forms. The cold solid samples were quickly recovered and re-levitated. In-situ x-ray structure measurements were then made on the cold solids as they warmed back to room temperature.
# Generally, radiations greater than 40 keV are suitable to provide bulk structure detail of materials about a millimeter or two in size.
# [4] = In situ x-ray monitoring of levitated amorphous gel over time; details: after more than 14 hours of in situ measurements on the levitated drop, from ethanol solution
# Text: By following the position of the principal peak in the x-ray diffraction patterns for all the supersaturated solutions, the amorphization process was investigated as a function of time. […] The fact there are no sharp (needle like) peaks in the measured spectra indicates the materials are completely amorphous. […] Some of the samples prepared using the invented process maintained their amorphous form for at least three weeks. This imaging method enabled the structural evolution of the material to be monitored in real time. The data were acquired from levitated samples in two minute duration sets.
# [5] = quenched samples stored at about −20° C. to 25° C., as noted in Table 1
Structure (SMILES),Tg [2] [°C],"Stability of amorphized drug over a period of months [1, 5]",Amorphous state during temperature exposure [3],Time amorphous form could be stored [3],other results
NC(=O)N1c2ccccc2C=Cc2ccccc21 [Carbamazepine],61,–,–,–,"Shelf life: amorphous state at time 1 month ([1]; stored at 4° C., 1 month): A/P; Shelf life: amorphous state at time 2 months ([1]; stored at 4° C., 2 months): A/P; Shelf life: amorphous state at time 3 months ([1]; stored at 4° C., 3 months): A/P; Shelf life: amorphous state at time 4 months ([1]; stored at 4° C., 4 months): A/P"
"C(=C\c1ccccc1)/CN1CCN(C(c2ccccc2)c2ccccc2)CC1 [Cinnazirine, Cinnarizine]",7,remained substantially stable,–,–,–
CC(C)(C)CC(C)(C)c1ccc(O)c(Cc2ccc(Cl)cc2Cl)c1 [Clofoctol],–,–,remain amorphous,at least three,–
Clc1ccccc1C(c1ccccc1)(c1ccccc1)n1ccnc1 [Clotrimazole],30,remained substantially stable,remain amorphous,at least three,–
CC(C)Cc1ccc(C(C)C(=O)O)cc1 (stereo not shown) [Ibuprofen],–,–,–,at least three,Changes in structure of levitated amorphous gel after plateau [4]: only minimal changes in structure
CC(C(=O)O)c1cccc(C(=O)c2ccccc2)c1 (stereo not shown) [Ketoprofen],−3,–,remain amorphous,at least three,–
Clc1ccc(COC(Cn2ccnc2)c2ccc(Cl)cc2Cl)c(Cl)c1 (stereo not shown) [Miconazole Nitrate],1,remained substantially stable,–,–,–
CC(C)(Sc1cc(C(C)(C)C)c(O)c(C(C)(C)C)c1)Sc1cc(C(C)(C)C)c(O)c(C(C)(C)C)c1 [Probucol],27,–,–,–,Stability of amorphized drug over a period of months [1]: remained substantially stable
